Laboratory results reported in publication PMC9152706, “Identification of the target and mode of action for the prokaryotic nucleotide excision repair inhibitor ATBC” (Bioscience Reports, 2022).

Biological target: T1, UvrA (Escherichia coli, UniProt P0A698)
T1 construct: full-length, C-terminal flexible linker, AviTag, TEV site and His tag; Ni-NTA purified from E. coli (BL21 delta-uvrA delta-uvrB used for expression); unlabelled; homodimer
T1 sequence (P0A698 1-940): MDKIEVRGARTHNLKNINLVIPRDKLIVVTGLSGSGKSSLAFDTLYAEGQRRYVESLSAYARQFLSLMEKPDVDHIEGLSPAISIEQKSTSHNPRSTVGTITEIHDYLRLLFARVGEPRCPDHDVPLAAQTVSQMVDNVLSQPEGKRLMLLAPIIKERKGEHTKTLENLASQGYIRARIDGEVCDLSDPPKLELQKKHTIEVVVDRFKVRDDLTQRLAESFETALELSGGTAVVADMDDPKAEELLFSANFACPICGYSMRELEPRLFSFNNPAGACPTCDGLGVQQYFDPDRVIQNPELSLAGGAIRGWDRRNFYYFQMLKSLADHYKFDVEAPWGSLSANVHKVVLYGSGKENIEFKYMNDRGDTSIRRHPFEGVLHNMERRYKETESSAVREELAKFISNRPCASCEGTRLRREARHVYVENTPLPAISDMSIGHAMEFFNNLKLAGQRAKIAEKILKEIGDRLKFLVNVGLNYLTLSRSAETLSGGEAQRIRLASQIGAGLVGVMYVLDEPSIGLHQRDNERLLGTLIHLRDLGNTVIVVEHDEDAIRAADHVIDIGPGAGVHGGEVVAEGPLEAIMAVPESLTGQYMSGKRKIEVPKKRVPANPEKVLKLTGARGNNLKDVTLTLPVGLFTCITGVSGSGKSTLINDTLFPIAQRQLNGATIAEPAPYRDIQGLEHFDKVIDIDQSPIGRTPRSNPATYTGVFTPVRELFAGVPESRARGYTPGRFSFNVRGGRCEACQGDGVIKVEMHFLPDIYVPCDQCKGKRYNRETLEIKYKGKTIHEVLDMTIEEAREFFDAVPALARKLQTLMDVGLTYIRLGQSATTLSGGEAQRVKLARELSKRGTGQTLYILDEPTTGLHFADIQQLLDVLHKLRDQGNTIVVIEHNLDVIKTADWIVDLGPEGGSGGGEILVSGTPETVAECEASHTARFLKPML
Assay: NADH-linked ATPase assay (pyruvate kinase / lactate dehydrogenase)
Type: biochemical
Conditions: 50 µM ATBC, 5 min preincubation; 1 mM ATP; 50 mM Tris-HCl pH 7.5, 50 mM KCl, 10 mM MgCl2; room temperature; poorly soluble, nominal concentration; ATPase site proposed from docking

Nc1nnc(-c2cc3c(ccc4ccccc43)oc2=O)s1 [ATBC, 2-(5-amino-1,3,4-thiadiazol-2-yl)benzo(f)chromen-3-one]
% reduction of kcat at 50 μM: ~ 70%
